Test results taken from patent US4130645A (priority 1978, dated 1978).
Values joined by “and” are separate entries in the source; they are usually repeats but may differ in a detail not shown here. Equal values may be shown once. Where a name gives a salt, the structure may show the parent alone.

Tested on: Venturia inaequalis (Cke.) Wint.
Test: whole plant or invertebrate
Type: in vivo
Conditions: Venturia inaequalis, foliar, read-out: Apple Scab Percent Disease Control

| SMILES | pest or weed control at 500 ppm [%] | pest or weed control at 200 ppm [%] |
| --- | --- | --- |
| O=[N+]([O-])Nc1ccccc1Cl | 93 | – |
| O=[N+]([O-])Nc1cccc(Cl)c1Cl [drawing 64] | 76 | 67 |
| CS(=O)(=O)c1ccc(N[N+](=O)[O-])cc1 [drawing 66] | 76 | – |
| O=[N+]([O-])Nc1c(Br)cc(C(F)(F)F)cc1Br [drawing 67] | 76 | – |
| CC(=O)Nc1cc(Cl)c(N[N+](=O)[O-])c(Cl)c1 [drawing 68] | 76 | – |
| O=[N+]([O-])Nc1c(Cl)c(Cl)cc(Cl)c1Cl [drawing 69] | 76 | – |
| COC(=O)CN(c1c(Cl)c(Cl)cc(Cl)c1Cl)[N+](=O)[O-] [drawing 73] | 96 | 83 |

Same assay, conditions: in vivo

| SMILES | activity against apple scab |
| --- | --- |
| O=[N+]([O-])Nc1c(Cl)c(Cl)cc(Cl)c1Cl [2,3,5,6-tetrachlorophenylnitramine N-barium salt] | active |
| O=[N+]([O-])Nc1cccc(Cl)c1Cl [2,3-dichlorophenylnitramine] | active |
| O=[N+]([O-])Nc1ccc(Cl)cc1Cl [2,4-dichlorophenylnitramine] | active |
| CC(=O)Nc1cc(Cl)c(N[N+](=O)[O-])c(Cl)c1 [2,6-dichloro-4-acetamidophenylnitramine] | active |
| CS(=O)(=O)c1ccc(N[N+](=O)[O-])cc1 [4-methylsulfonylphenylnitramine] | active |
| CC(C)N(c1c(Cl)c(Cl)cc(Cl)c1Cl)[N+](=O)[O-] [--(CH(CH3)2] | active |
| COC(=O)CN(c1c(Cl)c(Cl)cc(Cl)c1Cl)[N+](=O)[O-] [--CH2 COOCH3] | active |

Tested on: Podosphaera leucotricha (E&E) Salm.
Test: whole plant or invertebrate
Type: in vivo
Conditions: Podosphaera leucotricha, foliar, read-out: Apple Powdery Mildew Percent Disease Control

| SMILES | pest or weed control at 500 ppm [%] |
| --- | --- |
| Cc1c(Cl)cccc1N[N+](=O)[O-] | 84 |
| O=[N+]([O-])Nc1cccc(Cl)c1Cl [drawing 74] | 96 |
| O=[N+]([O-])Nc1c(Cl)cccc1Cl [drawing 75] | 84 |
| O=[N+]([O-])Nc1cccc(Br)c1 [drawing 77] | 84 |
| Cc1cc([N+](=O)[O-])cc(C)c1N[N+](=O)[O-] [drawing 78] | 84 |
| O=[N+]([O-])Nc1c(Br)cc(C(F)(F)F)cc1Br [drawing 79] | 84 |
| O=[N+]([O-])Nc1ccc(Cl)c(C(F)(F)F)c1 [drawing 80] | 84 |
| CC(=O)N(c1c(Cl)c(Cl)cc(Cl)c1Cl)[N+](=O)[O-] [drawing 83] | 92 |

Same assay, conditions: in vivo

| SMILES | activity against apple powdery mildew |
| --- | --- |
| O=[N+]([O-])Nc1cccc(Cl)c1Cl [2,3-dichlorophenylnitramine] | active |
| O=[N+]([O-])Nc1c(Cl)cccc1Cl [2,6-dichloro-] | active |
| Cc1cc([N+](=O)[O-])cc(C)c1N[N+](=O)[O-] [2,6-dimethyl-4-nitro-] | active |
| O=[N+]([O-])Nc1cccc(Br)c1 [3-bromophenylnitramine] | active |
| O=[N+]([O-])Nc1cccc(Cl)c1C(F)(F)F [3-chloro-2-trifluoromethyl-] | active |
| O=[N+]([O-])Nc1ccc(Cl)c(C(F)(F)F)c1 [4-chloro-3-trifluoromethyl-] | active |

Tested on: Erysiphe graminis f. sp. hordei
Test: whole plant or invertebrate
Type: in vivo
Conditions: Blumeria graminis, in Hordeum vulgare, foliar, read-out: Barley Powdery Mildew Percent Disease Control

| SMILES | pest or weed control at 500 ppm [%] | pest or weed control at 200 ppm [%] | pest or weed control at 50 ppm [%] | pest or weed control at 100 ppm [%] |
| --- | --- | --- | --- | --- |
| O=[N+]([O-])Nc1cccc(C(F)(F)F)c1 | 96 | – | – | – |
| N#Cc1ccc(N[N+](=O)[O-])c(Br)c1 | 100 | – | – | – |
| CCc1cccc(CC)c1N[N+](=O)[O-] | 100 | – | – | – |
| CN(c1c(Br)cccc1Br)[N+](=O)[O-] | 89 | – | – | – |
| CC(C)OC(=O)Nc1cc(Cl)c(N[N+](=O)[O-])c(Cl)c1 | – | 97 | – | – |
| CCN(c1c(Br)cccc1Br)[N+](=O)[O-] | 89 | – | – | – |
| O=[N+]([O-])N(Cc1ccccc1)c1c(Br)cccc1Br | 100 | – | – | – |
| CC(C)N(c1c(Br)cccc1Br)[N+](=O)[O-] | 100 | – | – | – |
| CN(c1c(Cl)c(Cl)cc(Cl)c1Cl)[N+](=O)[O-] | 100 | – | – | – |
| O=[N+]([O-])Nc1cc(Cl)c(Cl)c(Cl)c1Cl | 84 | – | – | – |
| O=[N+]([O-])Nc1ccc(C(F)(F)F)cc1 [drawing 84] | 96 | 91 | 84 | 95 |
| O=[N+]([O-])Nc1c(Cl)c(Cl)cc(Cl)c1Cl [drawing 87] | 84 | – | 48 | – |
| O=[N+]([O-])Nc1cccc(Cl)c1Cl [drawing 89] | 100 | – | – | – |
| O=[N+]([O-])Nc1ccc(Cl)cc1Cl [drawing 90] | 100 | – | – | – |
| O=[N+]([O-])Nc1c(Cl)cccc1Cl [drawing 91] | 100 | – | – | – |
| CS(=O)(=O)c1ccc(N[N+](=O)[O-])cc1 [drawing 93] | 100 | – | – | – |
| O=[N+]([O-])Nc1cccc(Br)c1 [drawing 99] | 96 | – | – | – |
| Cc1cc([N+](=O)[O-])cc(C)c1N[N+](=O)[O-] [drawing 101] | 100 | – | – | – |
| O=[N+]([O-])Nc1c(Br)cc(C(F)(F)F)cc1Br [drawing 102] | 100 | 83 | – | – |
| CC(=O)Nc1cc(Cl)c(N[N+](=O)[O-])c(Cl)c1 [drawing 107] | 84 | – | – | – |
| CCC(=O)Nc1cc(Cl)c(N[N+](=O)[O-])c(Cl)c1 [drawing 108] | 100 | – | – | – |
| CC(=O)N(c1c(Cl)c(Cl)cc(Cl)c1Cl)[N+](=O)[O-] [drawing 121] | 100 | 95 | 95 | 95 |
| COC(=O)CN(c1c(Cl)c(Cl)cc(Cl)c1Cl)[N+](=O)[O-] [drawing 122] | 84 | – | – | – |

Same assay, conditions: in vivo

| SMILES | Barley Powdery Mildew Percent Disease Control |
| --- | --- |
| O=[N+]([O-])Nc1c(Cl)c(Cl)cc(Cl)c1Cl [drawing 87] | 71% |
| O=[N+]([O-])Nc1c(Cl)c(Cl)cc(Cl)c1Cl [drawing 100] | 100% and 95% |
| CCC(=O)Nc1cc(Cl)c(N[N+](=O)[O-])c(Cl)c1 [drawing 112] | 89% |
| O=[N+]([O-])Nc1c(Cl)c(Cl)cc(Cl)c1Cl [drawing 118] | 100% |
| O=[N+]([O-])Nc1c(Cl)c(Cl)cc(Cl)c1Cl [drawing 123] | 98% and 96% |

Tested on: not listed separately
Test: Thermal decomposition point (Differential Thermal Analyzer)
Type: physicochemical
Conditions: 20° C./min, onset method
Protocol: By the procedure of Examples 2 and 5 the following novel salts of 2,3,5,6-tetrachloro-N-nitroaniline are prepared as listed in Table II below. The melting points (uncorrected) of said salts are determined on a Thomas Hoover Capillary Melting Point Apparatus; while the thermal decomposition points of said salts are determined on a Dupont 900 Differential Thermal Analyzer. […] Decompositions are recorded by an exothermic response and the temperatures given in Table II below are assessed by the "onset method".

| SMILES | Thermal Decomposition Point |
| --- | --- |
| O=[N+]([O-])Nc1c(Cl)c(Cl)cc(Cl)c1Cl [K] | 272 °C |
| O=[N+]([O-])Nc1c(Cl)c(Cl)cc(Cl)c1Cl [NH2 (C3 H7)2] | 204 °C |
| O=[N+]([O-])Nc1c(Cl)c(Cl)cc(Cl)c1Cl [NH2 (C4 H9)2] | 207 °C |
| O=[N+]([O-])Nc1c(Cl)c(Cl)cc(Cl)c1Cl [NH2 (C18 H37)2] | 168 °C |
| O=[N+]([O-])Nc1c(Cl)c(Cl)cc(Cl)c1Cl [NH2 (CH2 CH2 OH)2] | 173 °C and 177 °C |
| O=[N+]([O-])Nc1c(Cl)c(Cl)cc(Cl)c1Cl [NH2 (CH2C6 H5)2, dibenzylamine salt of 2,3,5,6-tetrachloro-N-nitroaniline] | 183 °C |
| O=[N+]([O-])Nc1c(Cl)c(Cl)cc(Cl)c1Cl [NH3 (CH2)3 NHC12 H25 -n] | 184 °C |
| O=[N+]([O-])Nc1c(Cl)c(Cl)cc(Cl)c1Cl [NH3 (CH2)8 CHCH(CH2)7 CH3] | 157 °C |
| O=[N+]([O-])Nc1c(Cl)c(Cl)cc(Cl)c1Cl [NH3 C8 H17] | 163 °C |
| O=[N+]([O-])Nc1c(Cl)c(Cl)cc(Cl)c1Cl [NH3 C12 H25 -n] | 166 °C |
| O=[N+]([O-])Nc1c(Cl)c(Cl)cc(Cl)c1Cl [NH3 C16 H33] | 148.5 °C |
| O=[N+]([O-])Nc1c(Cl)c(Cl)cc(Cl)c1Cl [NH3 CH2 CH2 NH2] | 208 °C |
| O=[N+]([O-])Nc1c(Cl)c(Cl)cc(Cl)c1Cl [NH3 CH2 CH2 OH, ethanolamine salt of 2,3,5,6-tetrachloro-N-nitroaniline] | 203 °C |
| O=[N+]([O-])Nc1c(Cl)c(Cl)cc(Cl)c1Cl [NH3 CH3] | 183 °C |
| O=[N+]([O-])Nc1c(Cl)c(Cl)cc(Cl)c1Cl [NH4] | 178 °C |
| O=[N+]([O-])Nc1c(Cl)c(Cl)cc(Cl)c1Cl [NH(C2 H5)3] | 169 °C |
| O=[N+]([O-])Nc1c(Cl)c(Cl)cc(Cl)c1Cl [NH(C3 H7)3] | 154 °C |
| O=[N+]([O-])Nc1c(Cl)c(Cl)cc(Cl)c1Cl [NH(CH2 CH2 OH)3] | 150 °C |
| O=[N+]([O-])Nc1c(Cl)c(Cl)cc(Cl)c1Cl [NH(CH3)2 . C6 H5, N,N-dimethylaniline salt of 2,3,5,6-tetrachloro-N-nitroaniline] | 128 °C |
| O=[N+]([O-])Nc1c(Cl)c(Cl)cc(Cl)c1Cl [NHC18 H37 . (CH2 CH2 O)2 H . (CH2 CH2 O)3 H] | 153-157 °C |
| O=[N+]([O-])Nc1c(Cl)c(Cl)cc(Cl)c1Cl [drawing 21] | 176 °C |
| O=[N+]([O-])Nc1c(Cl)c(Cl)cc(Cl)c1Cl [drawing 22] | 143 °C |
| O=[N+]([O-])Nc1c(Cl)c(Cl)cc(Cl)c1Cl [drawing 23] | 163 °C |
| O=[N+]([O-])Nc1c(Cl)c(Cl)cc(Cl)c1Cl [drawing 24] | 138 °C |
| O=[N+]([O-])Nc1c(Cl)c(Cl)cc(Cl)c1Cl [drawing 25] | 173 °C |
| O=[N+]([O-])Nc1c(Cl)c(Cl)cc(Cl)c1Cl [drawing 26] | 203 °C |
